Measured values as given in ChEMBL document CHEMBL1201862, “PubChem BioAssay data set” (2004).
Values joined by “and” are separate entries in the source; they are usually repeats but may differ in a detail not shown here. Identical values can stand only once.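 Growth conditions: 96-well plates. Treatment: test compound, 48 hours, 5 concentrations. Analysis: linear interpolation between bracketing concentrations; unreached endpoints set to highest concentration. GI50: concentration for 50% inhibition of growth.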 Active and inactive are the calls of the source. Rule as the data show it: active = GI50 up to about 1.1 µM and inactive = higher.

Legend:
Test in all cases: growth of human tumour cells (NCI), 48 h
SK-MEL-2 = test system: SK-MEL-2
K562 = test system: K562
MOLT-4 = test system: MOLT-4
ACHN = test system: ACHN
RPMI-8226 = test system: RPMI-8226
SR = test system: SR
NCI-H460 = test system: NCI-H460
HT-29 = test system: HT-29
A549 = test system: A549
M14 = test system: M14
OVCAR-4 = test system: OVCAR-4
UO-31 = test system: UO-31
HCT-116 = test system: HCT-116
T47D = test system: T47D
LOX IMVI = test system: LOX IMVI
SF-539 = test system: SF-539
SK-MEL-5 = test system: SK-MEL-5
MCF7 = test system: MCF7
BT-549 = test system: BT-549

| Structure (SMILES) | GI50 (SK-MEL-2) | GI50 (K562) | GI50 (MOLT-4) | GI50 (ACHN) | GI50 (RPMI-8226) | GI50 (SR) | GI50 (NCI-H460) | GI50 (HT-29) | GI50 (A549) | GI50 (M14) | GI50 (OVCAR-4) | GI50 (UO-31) | GI50 (HCT-116) | GI50 (T47D) | GI50 (LOX IMVI) | GI50 (SF-539) | GI50 (SK-MEL-5) | GI50 (MCF7) | GI50 (BT-549) |
| --- | --- | --- | --- | --- | --- | --- | --- | --- | --- | --- | --- | --- | --- | --- | --- | --- | --- | --- | --- |
| N#CC(c1ccc(Cl)cc1)c1cccc(Cl)n1 (stereo not drawn) | 54.8 µM (inactive) | 58.9 µM (inactive) | 55.8 µM (inactive) | 32.7 µM (inactive) | 51.1 µM (inactive) | 45.1 µM (inactive) | > 100 µM (inactive) | 83.6 µM (inactive) | 31 µM (inactive) | 79.8 µM (inactive) | 40 µM (inactive) | 28.1 µM (inactive) |  |  |  |  |  |  |  |
| COc1ccc(C2OC(c3ccncc3)=NN2C)cc1F (stereo not drawn) | > 100 µM (inactive) | > 100 µM (inactive) | 41.9 µM (inactive) | > 100 µM (inactive) | > 100 µM (inactive) |  | > 100 µM (inactive) | > 100 µM (inactive) | > 100 µM (inactive) | > 100 µM (inactive) | > 100 µM (inactive) | > 100 µM (inactive) | > 100 µM (inactive) | > 100 µM (inactive) | > 100 µM (inactive) | > 100 µM (inactive) | > 100 µM (inactive) | > 100 µM (inactive) |  |
| Cc1ccc(C2SCc3nc4ccccc4n32)cc1 (stereo not drawn) | 1.1 µM (active) | 0.671 µM (active) | 2.96 µM (inactive) | 5.32 µM (inactive) | 5.31 µM (inactive) |  | 3.76 µM (inactive) | 2.47 µM (inactive) | 6.43 µM (inactive) | 4.49 µM (inactive) | 8.77 µM (inactive) | 5.36 µM (inactive) | 3.11 µM (inactive) | 10.3 µM (inactive) | 4.47 µM (inactive) | 2.29 µM (inactive) | 1.53 µM (inactive) | 4.68 µM (inactive) |  |
| CC1=NN(c2cccc(Cl)c2)C(=N/c2nc3ccccc3s2)/C1=C\C=C\c1ccccc1 |  | 9.23 µM (inactive) | 0.369 µM (active) | 28 µM (inactive) | 18.9 µM (inactive) | 0.359 µM (active) | 29.7 µM (inactive) | 33.5 µM (inactive) |  | 42.3 µM (inactive) | 45.1 µM (inactive) | 28.4 µM (inactive) | 28.2 µM (inactive) | 46.7 µM (inactive) | 32.2 µM (inactive) | 43.8 µM (inactive) | 20.6 µM (inactive) | 25.7 µM (inactive) |  |
| Cn1c(=O)oc2cc(C(=O)CN3CCN(Cc4ccc5c(c4)OCO5)CC3)c(Cl)cc21 | > 100 µM (inactive) | > 100 µM (inactive) | > 100 µM (inactive) | > 100 µM (inactive) | > 100 µM (inactive) | > 100 µM (inactive) | > 100 µM (inactive) |  |  |  |  | 94 µM (inactive) | > 100 µM (inactive) | > 100 µM (inactive) | 80.4 µM (inactive) | > 100 µM (inactive) | > 100 µM (inactive) | > 100 µM (inactive) |  |
| O=C(/C=C/c1ccc(O)c([N+](=O)[O-])c1)CC(=O)/C=C/c1ccc(O)c([N+](=O)[O-])c1 | 41.1 µM (inactive) |  |  | > 100 µM (inactive) | 14.4 µM (inactive) |  | 30.5 µM (inactive) | 42.7 µM (inactive) | 53.7 µM (inactive) | 65.8 µM (inactive) | 79.3 µM (inactive) | > 100 µM (inactive) | 41.6 µM (inactive) |  | 14.4 µM (inactive) | > 100 µM (inactive) | 49.7 µM (inactive) | 53.5 µM (inactive) | > 100 µM (inactive) |
| CC1OC(n2cc(C(F)(F)F)c(=O)[nH]c2=O)C=CC1=O (stereo not drawn) | 18.2 µM (inactive) | 27.5 µM (inactive) | 22.6 µM (inactive) | 17.5 µM (inactive) | 13.5 µM (inactive) | 12.7 µM (inactive) | 23.5 µM (inactive) | 24.5 µM (inactive) | 47.3 µM (inactive) | 22.9 µM (inactive) | 13.4 µM (inactive) | 18.2 µM (inactive) | 16.2 µM (inactive) |  | 17.6 µM (inactive) | 18.9 µM (inactive) |  |  |  |
| O=C(c1ccco1)N(C(=O)N1CCCCC1)c1ccccc1 | > 100 µM (inactive) | > 100 µM (inactive) | > 100 µM (inactive) | > 100 µM (inactive) | > 100 µM (inactive) |  |  | > 100 µM (inactive) |  | > 100 µM (inactive) |  | > 100 µM (inactive) | > 100 µM (inactive) |  | > 100 µM (inactive) | > 100 µM (inactive) | > 100 µM (inactive) | > 100 µM (inactive) | > 100 µM (inactive) |
| COc1cccc(C2c3cc4c(cc3OC(N3CCCC3)C2c2ccccc2)OCO4)c1O (stereo not drawn) | 12.1 µM (inactive) | 5.35 µM (inactive) | 3.85 µM (inactive) | 3.72 µM (inactive) | 5.69 µM (inactive) | 4.76 µM (inactive) | 8.22 µM (inactive) | 7.43 µM (inactive) | 11.6 µM (inactive) | 11 µM (inactive) |  | 3.46 µM (inactive) | 4.21 µM (inactive) | 5.97 µM (inactive) | 12.4 µM (inactive) | 6.78 µM (inactive) | 10.8 µM (inactive) | 8.65 µM (inactive) |  |
| CN(C)CCOC1(Cc2ccc(F)cc2)CCC(C(C)(C)C)CC1 (stereo not drawn) |  | 2.03 µM (inactive) and 2.19 µM (inactive) | 3.13 µM (inactive) and 2.61 µM (inactive) | 11 µM (inactive) and 12.9 µM (inactive) | 2.3 µM (inactive) and 2.48 µM (inactive) | 2.63 µM (inactive) and 2.29 µM (inactive) | 3.27 µM (inactive) and 2.23 µM (inactive) | 2.88 µM (inactive) and 2.7 µM (inactive) | 9.77 µM (inactive) and 11.9 µM (inactive) | 1.67 µM (inactive) and 2.05 µM (inactive) |  | 6.12 µM (inactive) and 4.81 µM (inactive) | 4.39 µM (inactive) and 4.75 µM (inactive) | 4.34 µM (inactive) and 5.09 µM (inactive) | 2.42 µM (inactive) and 3.2 µM (inactive) |  | 1.93 µM (inactive) and 1.74 µM (inactive) | 6.04 µM (inactive) and 5.24 µM (inactive) |  |
| COC(=O)[C@@H]1CN(C(=O)c2ccccc2)C(=O)N1 |  | > 100 µM (inactive) | > 100 µM (inactive) | > 100 µM (inactive) | > 100 µM (inactive) | > 100 µM (inactive) | > 100 µM (inactive) | > 100 µM (inactive) | > 100 µM (inactive) | > 100 µM (inactive) | > 100 µM (inactive) | 69.7 µM (inactive) | > 100 µM (inactive) | > 100 µM (inactive) | > 100 µM (inactive) | > 100 µM (inactive) | > 100 µM (inactive) |  |  |
| CC1(C)[C@@H](Cn2cnc3c(Cl)nc(N)nc32)CC[C@@]1(C)CO | 18.5 µM (inactive) | > 100 µM (inactive) |  | > 100 µM (inactive) | 24.2 µM (inactive) |  |  |  | > 100 µM (inactive) | 40.3 µM (inactive) | > 100 µM (inactive) | 3.74 µM (inactive) | 34.3 µM (inactive) | > 100 µM (inactive) | 27.9 µM (inactive) | > 100 µM (inactive) | 18.7 µM (inactive) | > 100 µM (inactive) |  |
| c1csc(-c2nccc3c2[nH]c2ccccc23)c1 | 21.8 µM (inactive) | 25.6 µM (inactive) | 22.2 µM (inactive) | 24.5 µM (inactive) |  | 21 µM (inactive) | 23.9 µM (inactive) | 15.1 µM (inactive) | 18.5 µM (inactive) | 17.8 µM (inactive) | 18.2 µM (inactive) |  | 16.3 µM (inactive) | 11.8 µM (inactive) | 20.5 µM (inactive) | 16.4 µM (inactive) | 16.7 µM (inactive) | 3.35 µM (inactive) |  |
